Results: patent US9302999B2, “Substituted triazoles as herbicides” (E. I. DU PONT DE NEMOURS AND COMPANY, priority 2012, dated 2016)

How the values were obtained:
Assay type in all cases: in vivo
[1] = system: deadnettle (henbit deadnettle, Lamium amplexicaule); assay: Test C postemergence: deadnettle
Description: (§1) At the same time, plants selected from these crop and weed species and also barley (winter barley, Hordeum vulgare), canarygrass (Phalaris minor), chickweed (common chickweed, Stellaria media) windgrass (Apera spica-venti) and deadnettle (henbit deadnettle, Lamium amplexicaule) were planted in pots containing Redi-Earth® planting medium (Scotts Company, 14111 Scottslawn Road, Marysville, Ohio 43041) comprising spaghnum peat moss, vermiculite, wetting agent and starter nutrients and treated with postemergence applications of test chemicals formulated in the same manner. Plants ranged in height from 2 to 18 cm (1- to 4-leaf stage) for postemergence treatments.
(§2) Treated plants and controls were maintained in a greenhouse for 13 to 15 days, after which time all species were compared to controls and visually evaluated. Plant response ratings, summarized in Table C, are based on a scale of 0 to 100 where 0 is no effect and 100 is complete control. A dash (-) response means no test result.

[2] = system: woolly cupgrass (Eriochloa villosa); assay: Test C pre-/postemergence: woolly cupgrass
Description: (§3) Seeds of plant species selected from blackgrass (Alopecurus myosuroides), bromegrass, downy (downy bromegrass, Bromus tectorum), foxtail, green (green foxtail, Setaria viridis), ryegrass, Italian (Italian ryegrass, Lolium multiflorum), winter wheat (Triticum aestivum), wild oat (Avena fatua), galium (catchweed bedstraw, Galium aparine), bermudagrass (Cynodon dactylon), surinam grass (Brachiaria decumbens), cocklebur (common cocklebur, Xanthium strumarium), corn (Zea mays), large crabgrass (Digitaria sanguinalis), woolly cupgrass (Eriochloa villosa), foxtail, giant (giant foxtail, Setaria faberii), goosegrass (Eleusine indica), johnsongrass (Sorghum halepense), kochia (Kochia scoparia), lambsquarters (Chenopodium album), morningglory (Ipomoea coccinea), nightshade (eastern black nightshade, Solanum ptycanthum), nutsedge, yellow (yellow nutsedge, Cyperus esculentus), pigweed (Amaranthus retroflexus), ragweed (common ragweed, Ambrosia elation), soybean (Glycine max), common (oilseed) sunflower (Helianthus annuus), Russian thistle (Salsola kali) and velvetleaf (Abutilon theophrasti) were planted into a blend of loam soil and sand and treated preemergence with test chemicals formulated in a non-phytotoxic solvent mixture which included a surfactant.
as §1, §2

[3] = system: speedwell (bird's-eye speedwell, Veronica persica); assay: Test D pre-/postemergence: speedwell
Description: (§4) Seeds of plant species selected from bluegrass (annual bluegrass, Poa annua), blackgrass (Alopecurus myosuroides), canarygrass (Phalaris minor), chickweed (common chickweed, Stellaria media), galium (catchweed bedstraw, Galium aparine), bromegrass, downy (downy bromegrass, Bromus tectorum), field poppy (Papaver rhoeas), field violet (Viola arvensis), foxtail, green (green foxtail, Setaria viridis), deadnettle (henbit deadnettle, Lamium amplexicaule), ryegrass, Italian (Italian ryegrass, Lolium multiflorum), kochia (Kochia scoparia), lambsquarters (Chenopodium album), oilseed rape (Brassica napus), pigweed (Amaranthus retroflexus), Russian thistle (Salsola iberica), chamomile (scentless chamomile, Matricaria inodora), speedwell (bird's-eye speedwell, Veronica persica), barley, spring (spring barley, Hordeum vulgare), wheat, spring (spring wheat, Triticum aestivum), buckwheat, wild (wild buckwheat, Polygonum convolvulus), mustard, wild (wild mustard, Sinapis arvensis), oat, wild (wild oat, Avena fatua), radish, wild (wild radish, Raphanus raphanistrum), windgrass (Apera spica-venti), barley, winter (winter barley, Hordeum vulgare), and wheat, winter (winter wheat, Triticum aestivum) were planted into a silt loam soil and treated preemergence with test chemicals formulated in a non-phytotoxic solvent mixture which included a surfactant. At the same time, these same crop and weed species were planted in pots containing the planting medium comprising spaghnum peat moss, vermiculite, wetting agent and starter nutrients and treated with postemergence applications of the test chemicals formulated in the same manner. Plants ranged in height from 2 to 18 cm (1- to 4-leaf stage).
as §2, with “controlled growth environment” for “greenhouse”, “14” for “13”, “21 days” for “15 days,”, “D,” for “C,”

[4] = system: chickweed (common chickweed, Stellaria media); assay: Test D pre-/postemergence: chickweed
Description: as §4
as §2, with “controlled growth environment” for “greenhouse”, “14” for “13”, “21 days” for “15 days,”, “D,” for “C,”

[5] = system: barley, winter (winter barley, Hordeum vulgare); assay: Test D pre-/postemergence: barley, winter
Description: as §4
as §2, with “controlled growth environment” for “greenhouse”, “14” for “13”, “21 days” for “15 days,”, “D,” for “C,”

[6] = system: pigweed (Amaranthus retroflexus); assay: Test D pre-/postemergence: pigweed
Description: as §4
as §2, with “controlled growth environment” for “greenhouse”, “14” for “13”, “21 days” for “15 days,”, “D,” for “C,”

[7] = system: barnyardgrass (Echinochloa crus-galli); assay: Test B flooded paddy: barnyardgrass; details: Flood, applied to paddy water at 2-leaf stage, visually evaluated after 13 to 15 days
How it was run: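 Greenhouse assay lasting 13 to 15 days. Treatment was into water flooding pots 3 cm deep, at the 2-leaf stage, with that level sustained afterwards. Scores compare treated with control plants visually, 100 denoting complete control and 0 no effect; a dash marks no test result.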

[8] = system: Russian thistle (Salsola kali); assay: Test C pre-/postemergence: Russian thistle; details: Preemergence
Description: as §3, §1, §2

[9] = 31 g ai/ha, scale 0 to 100 (0 no effect, 100 complete control)
[10] = 62 g ai/ha, scale 0 to 100 (0 no effect, 100 complete control)
[11] = 125 g ai/ha, scale 0 to 100, 0 no effect, 100 complete control
[12] = Postemergence, 31 g ai/ha, scale 0 to 100 (0 no effect, 100 complete control)
[13] = Postemergence, 62 g ai/ha, scale 0 to 100 (0 no effect, 100 complete control)
[14] = Postemergence, 125 g ai/ha, scale 0 to 100, 0 no effect, 100 complete control
[15] = Postemergence, 250 g ai/ha, scale 0 to 100 (0 no effect, 100 complete control)
[16] = Postemergence, 16 g ai/ha, scale 0 to 100
[17] = Preemergence, 16 g ai/ha, scale 0 to 100 (0 no effect, 100 complete control)
[18] = Preemergence, 31 g ai/ha, scale 0 to 100 (0 no effect, 100 complete control)
[19] = Preemergence, 62 g ai/ha, scale 0 to 100
[20] = Preemergence, 125 g ai/ha, scale 0 to 100
[21] = Preemergence, 250 g ai/ha, scale 0 to 100
[22] = Postemergence, 250 g ai/ha, scale 0 to 100
[23] = Preemergence, 31 g ai/ha, scale of 0 to 100, 0 is no effect, 100 is complete control
[24] = Preemergence, 62 g ai/ha, scale of 0 to 100, 0 is no effect, 100 is complete control
[25] = Preemergence, 125 g ai/ha, scale 0 to 100, 0 no effect, 100 complete control
[26] = Preemergence, 250 g ai/ha, scale 0 to 100, 0 no effect, 100 complete control

Cc1nn(-c2ccc(C(F)(F)F)cc2)nc1Cc1cccc(C(F)(F)F)c1 [Compound 124]
Plant response rating, Deadnettle ([1]; 16 g ai/ha, scale 0 to 100, 0 no effect, 100 complete control): 75
Plant response rating, Deadnettle [1, 9]: 80
Plant response rating, Deadnettle [1, 10]: 98
Plant response rating, Deadnettle [1, 11]: 98
Plant response rating, Cupgrass, Woolly ([2]; Postemergence, 16 g ai/ha, scale 0 to 100, 0 no effect, 100 complete control): 5
Plant response rating, Cupgrass, Woolly [2, 12]: 5
Plant response rating, Cupgrass, Woolly [2, 13]: 10
Plant response rating, Cupgrass, Woolly [2, 14]: 20

Cc1nn(-c2ccc(F)cc2)nc1Oc1ccnc(C(F)(F)F)c1 [Compound 129, 4-[[2-(4-fluorophenyl)-5-methyl-2H-1,2,3-triazol-4-yl]oxy]-2-(trifluoromethyl)pyridine]
Plant response rating: Speedwell [3, 12]: 100
Plant response rating: Speedwell [3, 13]: 100
Plant response rating: Speedwell [3, 14]: 100
Plant response rating: Speedwell [3, 15]: 100
Plant response rating, Speedwell [3, 16]: 100
Plant response rating: Chickweed [4, 12]: 90
Plant response rating: Chickweed [4, 13]: 100
Plant response rating: Chickweed [4, 14]: 100
Plant response rating: Chickweed [4, 15]: 100
Plant response rating, Chickweed [4, 16]: 75
Plant response rating, Chickweed [4, 17]: 0
Plant response rating, Chickweed [4, 18]: 100
Plant response rating, Chickweed [4, 19]: 100
Plant response rating, Chickweed [4, 20]: 100
Plant response rating, Chickweed [4, 21]: 100
Plant response rating: Barley, Winter [5, 12]: 5
Plant response rating: Barley, Winter [5, 13]: 10
Plant response rating: Barley, Winter [5, 14]: 15
Plant response rating: Barley, Winter [5, 15]: 30
Plant response rating, Barley, Winter [5, 16]: 5
Plant response rating, Barley, Winter [5, 17]: 0
Plant response rating, Barley, Winter [5, 18]: 0
Plant response rating, Barley, Winter [5, 19]: 0
Plant response rating, Barley, Winter [5, 20]: 10
Plant response rating, Barley, Winter [5, 21]: 15
Plant response rating, Deadnettle [1, 9]: 100
Plant response rating, Deadnettle [1, 10]: 100
Plant response rating, Deadnettle [1, 11]: 100
Plant response rating, Deadnettle ([1]; 250 g ai/ha, scale 0 to 100): 100
Plant response rating: Pigweed [6, 12]: 100
Plant response rating: Pigweed [6, 13]: 100
Plant response rating: Pigweed [6, 14]: 100
Plant response rating: Pigweed [6, 15]: 100
Plant response rating, Pigweed [6, 16]: 100
Plant response rating, Pigweed [6, 17]: 30
Plant response rating, Pigweed [6, 18]: 80
Plant response rating, Pigweed [6, 19]: 90
Plant response rating, Pigweed [6, 20]: 100
Plant response rating, Pigweed [6, 21]: 100
Plant response rating, Cupgrass, Woolly [2, 12]: 35
Plant response rating, Cupgrass, Woolly [2, 13]: 65
Plant response rating, Cupgrass, Woolly [2, 14]: 65
Plant response rating, Cupgrass, Woolly [2, 22]: 70
Plant response rating, Cupgrass, Woolly [2, 23]: 80
Plant response rating, Cupgrass, Woolly [2, 24]: 95
Plant response rating, Cupgrass, Woolly [2, 25]: 98
Plant response rating, Cupgrass, Woolly [2, 26]: 98

Cc1nn(-c2ccc(F)c(C(F)(F)F)c2)nc1Oc1ccnc(C(F)(F)F)c1 [Compound 147]
Plant response rating, Speedwell [3, 17]: 10
Plant response rating, Speedwell [3, 18]: 20
Plant response rating, Speedwell [3, 19]: 100
Plant response rating, Speedwell [3, 20]: 100
Plant response rating: Chickweed [4, 12]: 70
Plant response rating: Chickweed [4, 13]: 80
Plant response rating: Chickweed [4, 14]: 80
Plant response rating, Chickweed [4, 16]: 60
Plant response rating, Chickweed [4, 17]: 35
Plant response rating, Chickweed [4, 18]: 85
Plant response rating, Chickweed [4, 19]: 70
Plant response rating, Chickweed [4, 20]: 100
Plant response rating: Barley, Winter [5, 12]: 20
Plant response rating: Barley, Winter [5, 13]: 25
Plant response rating: Barley, Winter [5, 14]: 30
Plant response rating, Barley, Winter [5, 16]: 15
Plant response rating, Barley, Winter [5, 17]: 0
Plant response rating, Barley, Winter [5, 18]: 0
Plant response rating, Barley, Winter [5, 19]: 5
Plant response rating, Barley, Winter [5, 20]: 15
Plant response rating, Barnyardgrass (0 to 100 scale, 0 is no effect, 100 is complete control) ([7]; 250 g ai/ha): 55
Plant response rating: Pigweed [6, 12]: 70
Plant response rating: Pigweed [6, 13]: 85
Plant response rating: Pigweed [6, 14]: 95
Plant response rating, Pigweed [6, 16]: 75
Plant response rating, Pigweed [6, 17]: 35
Plant response rating, Pigweed [6, 18]: 75
Plant response rating, Pigweed [6, 19]: 80
Plant response rating, Pigweed [6, 20]: 100
Plant response rating, Cupgrass, Woolly [2, 23]: 50
Plant response rating, Cupgrass, Woolly [2, 24]: 55
Plant response rating, Cupgrass, Woolly [2, 25]: 95
Plant response rating, Cupgrass, Woolly [2, 26]: 98
Plant response rating, Russian Thistle ([8]; 31 g ai/ha, scale of 0 to 100, 0 is no effect, 100 is complete control): 0
Plant response rating, Russian Thistle ([8]; 62 g ai/ha, scale of 0 to 100, 0 is no effect, 100 is complete control): 90
Plant response rating, Russian Thistle [8, 11]: 90
Plant response rating, Russian Thistle ([8]; 250 g ai/ha, scale 0 to 100, 0 no effect, 100 complete control): 90

CCOc1nn(-c2ccc(Br)cc2)nc1Cc1ccnc(C(F)(F)F)c1 [Compound 189]
Plant response rating, Barnyardgrass (0 to 100 scale, 0 is no effect, 100 is complete control) ([7]; 125 g ai/ha): 0

Cc1nn(-c2ccnc(C(F)(F)F)c2)nc1Cc1ccnc(C(F)(F)F)c1 [Compound 137]
Plant response rating: Speedwell [3, 12]: 70
Plant response rating: Speedwell [3, 13]: 85
Plant response rating: Speedwell [3, 14]: 95
Plant response rating: Speedwell [3, 15]: 100
Plant response rating, Speedwell [3, 16]: 70
Plant response rating: Chickweed [4, 12]: 50
Plant response rating: Chickweed [4, 13]: 80
Plant response rating: Chickweed [4, 14]: 85
Plant response rating: Chickweed [4, 15]: 90
Plant response rating, Chickweed [4, 16]: 40
Plant response rating: Barley, Winter [5, 12]: 5
Plant response rating: Barley, Winter [5, 13]: 5
Plant response rating: Barley, Winter [5, 14]: 1
Plant response rating: Barley, Winter [5, 15]: 10
Plant response rating, Barley, Winter [5, 16]: 0
Plant response rating, Barnyardgrass (0 to 100 scale, 0 is no effect, 100 is complete control) ([7]; 250 g ai/ha): 45
Plant response rating, Deadnettle [1, 9]: 80
Plant response rating, Deadnettle [1, 10]: 95
Plant response rating, Deadnettle [1, 11]: 95
Plant response rating, Deadnettle ([1]; 250 g ai/ha, scale 0 to 100): 95
Plant response rating: Pigweed [6, 12]: 90
Plant response rating: Pigweed [6, 13]: 95
Plant response rating: Pigweed [6, 14]: 100
Plant response rating: Pigweed [6, 15]: 100
Plant response rating, Pigweed [6, 16]: 90
Plant response rating, Cupgrass, Woolly [2, 12]: 45
Plant response rating, Cupgrass, Woolly [2, 13]: 50
Plant response rating, Cupgrass, Woolly [2, 14]: 55
Plant response rating, Cupgrass, Woolly [2, 22]: 90
